This note sets out measurements from PubChem BioAssay AID1996.

Broadly, the kinetic solubility is the concentration staying in solution when a stock, usually in DMSO, is diluted into the medium.

Values after ≈ are worked out from the molar mass of the structure shown. Bounds are passed on as bounds.

The conditions of the data set: buffer; pH 7.4; 200.0 µM.
`CCc1ccc(N2CC(C(=O)N3CCCC3)CC2=O)cc1` (configuration not stated) came in with a solubility (kinetic) of 35.2 µg/mL (≈ 123 µM).

Molecule `Cc1cccc(C(=O)OCC(=O)c2csc(N3CCCCC3)n2)c1[N+](=O)[O-]` displayed a kinetic solubility of 2.8 µg/mL (≈ 7.19 µM).

Turning to `O=C(NCc1ccc2c(c1)OCO2)Nc1ccc2nsnc2c1`, the kinetic solubility stood at 2.5 µg/mL (≈ 7.61 µM).

As for `CCc1ccc(NC(=S)NCC2CCCN2CC)cc1` (configuration not stated), the solubility (kinetic) was over 43.7 µg/mL.

In turn, `Cc1[nH]c(=O)[nH]c(=O)c1NC(=O)c1ccc(OC(C)C)cc1` had a kinetic solubility of over 45.5 µg/mL.

Regarding `CSc1nsc(SCC(=O)Nc2ccc(F)cc2)n1`, the kinetic solubility is 39.6 µg/mL (≈ 126 µM).

In turn, `Cc1noc(C)c1S(=O)(=O)Nc1ccccc1OC(F)(F)F` yielded a kinetic solubility of 48.6 µg/mL (≈ 145 µM).

Turning to `C[C@@H]1CN(Cc2nc(-c3cnccn3)no2)C[C@H](C)O1`, the solubility (kinetic) stood at 30.8 µg/mL (≈ 112 µM). This solubility kinetic is about 1.6-fold lower than that of the molecule before.

In turn, `CCc1ccccc1NC(=O)CCN1C(=O)C2C3CCC(C3)C2C1=O` (configuration not stated) had a kinetic solubility of 43 µg/mL (≈ 126 µM).

With `CCN(CC)CC(O)CCCCCCCCC(=O)OC.Cl` (configuration not stated), the kinetic solubility was over 48.6 µg/mL.

As to `Cc1cc(C)n(C)c(=O)c1C#N`, the kinetic solubility is over 24.3 µg/mL.

The molecule `CC(C)NC(=O)NC(=O)CSc1ncccn1` showed a solubility (kinetic) of over 38.1 µg/mL.

Molecule `Cc1ccc(C)c(C(=O)COC(=O)Cn2c(C)csc2=O)c1` had a kinetic solubility of over 47.9 µg/mL.

`O=C(NCc1ccc(Cl)cc1)c1nccnc1CO`: the solubility (kinetic) was 40.5 µg/mL (≈ 146 µM).

`COc1cccc(NC(=S)N2CCc3cc(OC)c(OC)cc3C2)c1` registered a kinetic solubility of 4.9 µg/mL (≈ 13.7 µM).

In turn, `CC(=O)N1CCN(CC(C)(C)NS(=O)(=O)c2ccc(C)cc2)CC1` came in with a solubility (kinetic) of 46.6 µg/mL (≈ 132 µM).

Regarding `N#CCCN(C(=O)COC(=O)CSc1ccc(Cl)cc1)c1ccccc1`, the kinetic solubility was determined as 56.9 µg/mL (≈ 146 µM).

With `O=C(COC(=O)c1cc([N+](=O)[O-])ccc1NCCO)Nc1cccnc1Cl`, the kinetic solubility was 9.1 µg/mL (≈ 23.1 µM).

Molecule `NCCCCCC(=O)O` gave a kinetic solubility of 0.9 µg/mL (≈ 6.86 µM). This solubility kinetic is about 10-fold lower than that of the molecule before.

For the molecule `CC(=O)C1C(c2ccccc2)c2c(noc2C)CC1(C)O` (configuration not stated), the kinetic solubility is over 42.8 µg/mL.

`CC(C)c1ccc(NC(=O)CSc2nc3ncccc3[nH]2)cc1` registered a kinetic solubility of 3.2 µg/mL (≈ 9.8 µM).

Molecule `Cc1ccc(C)c(C(C)NC(=O)c2ccncc2)c1` (configuration not stated) returned a solubility (kinetic) of 36 µg/mL (≈ 142 µM).

For `CC1(C(=O)O)CCC(C(=O)Nc2ccc(F)cc2)C1(C)C` (configuration not stated), the solubility (kinetic) is over 44 µg/mL.

The molecule `Cc1cc(C)nc(NC(=O)c2ccc([N+](=O)[O-])c(C)c2)n1` showed a solubility (kinetic) of 13.3 µg/mL (≈ 46.5 µM).

`COc1ccc(CCNS(=O)(=O)c2ccc3c(c2)CCCC3)cc1OC` had a kinetic solubility of 28.2 µg/mL (≈ 75.1 µM). Compared with the last molecule, the solubility kinetic is about 2.1-fold higher.

`COc1cccc2[nH]c(C(=O)NCC3CCCO3)cc12` (configuration not stated) displayed a solubility (kinetic) of over 41.1 µg/mL.

For `O=C(O)CC1SC(=Nc2ccc(O)cc2)NC1=O` (configuration not stated), the kinetic solubility was over 39.9 µg/mL.

In turn, `O=C(CNC(=O)c1ccco1)NCc1ccc2c(c1)OCO2` had a solubility (kinetic) of 34.6 µg/mL (≈ 114 µM).

`O=[N+]([O-])c1cccc2ncccc12` displayed a kinetic solubility of 16.3 µg/mL (≈ 93.6 µM).

For `O=C(CSc1nc2cc(Cl)ccc2o1)NC1CC1`, the solubility (kinetic) was over 42.4 µg/mL.

As for `CSc1ccccc1NC(=O)c1ccc([N+](=O)[O-])cc1`, the solubility (kinetic) is 15.9 µg/mL (≈ 55.1 µM).

In turn, `O=S(=O)(Cc1cc(-c2ccccc2Cl)no1)c1ccccc1` registered a solubility (kinetic) of 1.8 µg/mL (≈ 5.39 µM).

`Cc1ccc(NC(=O)Cn2c(=O)oc3ccccc32)cc1Cl`: the kinetic solubility turned out to be 0.9 µg/mL (≈ 2.84 µM).

`Cc1ccc(C(C)C)c(OC/C(O)=C(\C#N)c2nc3ccccc3[nH]2)c1`: the kinetic solubility is under 0.2 µg/mL.

Regarding `Nc1nc(Cl)cc(Oc2ccc(Cl)cc2)n1`, the solubility (kinetic) was 1 µg/mL (≈ 3.9 µM).

With `NC(=O)CSc1nc2ccccc2c(=O)n1Cc1ccccc1`, the kinetic solubility was determined as 2.5 µg/mL (≈ 7.68 µM).

In the case of `N#C/C(=C\c1cccnc1)c1ccc([N+](=O)[O-])cc1`, the solubility (kinetic) turned out to be 13.1 µg/mL (≈ 52.1 µM).

In turn, `CC1CCC2(CC1)NC(=O)N(CC(=O)N1CC(C)CC(C)C1)C2=O` (configuration not stated) yielded a solubility (kinetic) of 15.8 µg/mL (≈ 47.1 µM).

Take `CC(OC(=O)c1ccc2c(c1)NC(=O)CS2)C(=O)c1ccc(F)cc1` (configuration not stated): the solubility (kinetic) came to 18.1 µg/mL (≈ 50.4 µM).

In turn, `Cc1cc(SCc2ccccc2C)nc(=O)[nH]1` registered a solubility (kinetic) of 30.7 µg/mL (≈ 125 µM).

`CCC1(c2ccc(N)cc2)CCC(=O)NC1=O` (configuration not stated) showed a solubility (kinetic) of over 34.8 µg/mL.

`Cc1[nH]c2ccc(C(=O)NC3CCC(C)CC3)cc2c1C` (configuration not stated) came in with a solubility (kinetic) of 0.9 µg/mL (≈ 3.16 µM).
